# According to paper PMC11219871, “Epigenetic-based differentiation therapy for Acute Myeloid Leukemia” (Nature Communications, 2024):
# Like-named read-outs stand apart in the source and are kept apart here.
# Assays:
# [1] = tested on: ML-2; test: RNA-seq; assay type: cell-based, human; conditions: for ABI1 Log2FC / CBFB Log2FC / CCR2 Log2FC / CD44 Log2FC / CDK6 Log2FC / CEBPB Log2FC / CSF3R Log2FC / CTNNBIP1 Log2FC / ELANE Log2FC / EP300 Log2FC / FLI1 Log2FC / FUT4 Log2FC / GATA2 Log2FC / HCLS1 Log2FC / ITGA4 Log2FC / ITGAM Log2FC / ITGB1 Log2FC / ITGB2 Log2FC / JUN Log2FC / MPO Log2FC / MYC Log2FC / NFE2 Log2FC / PIR Log2FC / RUNX1 Log2FC / SOX4 Log2FC / SPI1 Log2FC / TESC Log2FC / TRIB1 Log2FC / ZBTB46 Log2FC / ZFP36L1 Log2FC: ML-2, RNA-Seq
# Procedure: (§1) Transcriptomic analyses were performed following low-input 3′ end RNA sequencing approximation for characterization of transcriptional changes in ML-2 and HL-60 samples treated with CM-444 and CM-1758.
# (§2) Low-input 3′ end RNA-seq was performed as previously described[53],[54] with minor modifications. Briefly, RNA from 0.1 ×10^6 cells from each experimental condition was purified using a Dynabeads mRNA DIRECT Purification Kit (Thermo Fisher Scientific). For barcoded cDNA generation, polyadenylated RNA was retrotranscribed using an Affinity Script cDNA Synthesis Kit (Agilent Technologies), and barcoded primers also harboring T7 promoter and a partial Read2 sequence for illumine sequencing (CGATTGAGGCCGGTAATACGACTCACTATAGGGGGCGACGTGTGCTCTTCCGATCTXXXXXXNNNNTTTTTTTTTTTTTTTTTTTT, where XXXXXX is the cell barcode and NNN is a unique molecular identifier or UMI, which represents the same initial RNA molecule for future quantification). At this point, the samples were pooled (≤6 samples per pool) at equimolar ratios assessed by q-PCR.
# (§3) The samples were then treated with Exonuclease I (Thermo Fisher Scientific following a 1.2x positive SPRI-selection. Second-strand cDNA synthesis was then performed using a NEBNext Ultra II Directional RNA Second-Strand Synthesis Module (New England Biolabs) for 2 h at 16 °C, followed by a 1.4x positive solid-phase reverse immobilization (SPRI) cleanup. The samples were linearly amplified by T7 in vitro transcription using a T7 RNA Polymerase (New England Biolabs) for 16 h at 37 °C. After DNAse treatment (TURBO DNAse I, Thermo Fisher Scientific) for 15 min at 37 °C to remove dsDNA, samples were cleaned with a positive 1.2x SPRI-selection. RNA size, quality, and concentration were determined by analysis with a Qubit Fluorometer (Termo Fisher Scientific) and TapeStation (Agilent 4200 TapeSation System, Agilent Technologies). If necessary, RNA was fragmented in 200- to 300-bp fragments using Zn2+divalent cations followed by a 2x positive SPRI cleanup. Fragmented RNA was dephosphorylated using FastAP Thermosensitive Alkaline Phosphatase (Thermo Fisher Scientific) for 10 min at 37 °C to enhance RNA ligation yield. In this step, a partial Read1 ([…]) sequence for illumine sequencing was ligated to the 3′ end of the fragmented RNA using T4 RNA Ligase I (New England Biolabs). After a 1.5x positive SPRI cleanup, the RNA product was retrotranscribed using an Affinity Script cDNA Synthesis Kit (Agilent Technologies) and a specific retrotranscription primer ([…]). The library was then purified by 1.5x positive SPRI cleanup, and the yield of the previous steps was determined by q-PCR. Finally, PCR using KAPA HiFi HotStar Ready Mix (Kapa Biosystems) was performed for second-strand cDNA synthesis, illumine primers addition (Read1-P5: […] and Read2-P7: […]) and library amplification using the recommended cycle numbers to minimize over-amplification. The product was purified by a 0.7x positive SPRI cleanup. The quality of the final library was determined by q-PCR (based on the threshold cycle, or Ct, obtained for GAPDH (Fw: […], Rv: […]) or GUSB (Fw: […], Rv: […]) housekeeping genes calibrated per individual set of samples, Qubit Fluorometer (Thermo Fisher Scientific) and TapeStation (Agilent 4200 TapeStation System, Agilent Technologies). All libraries were pooled at equimolar ratios and sequenced on a NextSeq500 (Illumina) using 60 bp single-end reads at a minimum sequence depth of 10 million reads per sample.
# (§4) Raw reads were demultiplexed using bcl2fastq2 Conversion Software v2.19 (Illumina) to convert base call (BCL) files into FastQ files. The quality control of FastQ files was performed using FastQC (Bioinformatics Babraham Institute). Sequencing reads were aligned to hg19 human reference using Bowtie 2 (Johns Hopkins University) and quantified using quant3p script (github.com/ctlab/quant3p). […]
# [2] = tested on: HL-60; test: RNA-seq; assay type: cell-based, human; conditions: for ABI1 Log2FC / CBFB Log2FC / CCR2 Log2FC / CD44 Log2FC / CDK6 Log2FC / CEBPB Log2FC / CSF3R Log2FC / CTNNBIP1 Log2FC / ELANE Log2FC / EP300 Log2FC / FLI1 Log2FC / FUT4 Log2FC / GATA2 Log2FC / HCLS1 Log2FC / ITGA4 Log2FC / ITGAM Log2FC / ITGB1 Log2FC / ITGB2 Log2FC / JUN Log2FC / MPO Log2FC / MYC Log2FC / NFE2 Log2FC / PIR Log2FC / RUNX1 Log2FC / SOX4 Log2FC / SPI1 Log2FC / TESC Log2FC / TRIB1 Log2FC / ZBTB46 Log2FC / ZFP36L1 Log2FC: HL-60, RNA-Seq
# Procedure: as §1, §2, §3, §4
# [3] = ML-2, 25% GI50, 12 h, log2FC +/-1
# [4] = HL-60, 25% GI50, 12 h, log2FC +/-1
smiles,measurement,setting,value
"COc1cc2nc(-c3ccc(C)o3)cc(NCC3CCN(c4ncc(C(=O)NO)cn4)CC3)c2cc1OC [CM-444, 2-[4-[[[6,7-dimethoxy-2-(5-methyl-2-furyl)-4-quinolyl]amino]methyl]-1-piperidyl]pyrimidine-5-carbohydroxamic acid]",deregulated genes (RNA-seq),[1],558
same,down-regulated genes (RNA-seq),[1],88
same,up-regulated genes (RNA-seq),[1],470
same,deregulated genes (RNA-seq),[1]; [3],460
same,down-regulated genes (RNA-seq),[1]; [3],44
same,up-regulated genes (RNA-seq),[1]; [3],416
same,ABI1 Log2FC,[1],0.61
same,CBFB Log2FC,[1],0.4078
same,CCR2 Log2FC,[1],0.3405
same,CD44 Log2FC,[1],0.2468
same,CDK6 Log2FC,[1],-0.3705
same,CEBPB Log2FC,[1],0.009186
same,CSF3R Log2FC,[1],-0.2226
same,CTNNBIP1 Log2FC,[1],0.1064
same,ELANE Log2FC,[1],-0.8925
same,EP300 Log2FC,[1],0.282
same,FLI1 Log2FC,[1],0.279
same,FUT4 Log2FC,[1],-0.09706
same,GATA2 Log2FC,[1],1.078
same,HCLS1 Log2FC,[1],0.03361
same,ITGA4 Log2FC,[1],-0.1245
same,ITGAM Log2FC,[1],1.391
same,ITGB1 Log2FC,[1],0.4551
same,ITGB2 Log2FC,[1],-0.139
same,JUN Log2FC,[1],1.102
same,MPO Log2FC,[1],-1.303
same,MYC Log2FC,[1],-0.4866
same,NFE2 Log2FC,[1],0.3613
same,PIR Log2FC,[1],1.319
same,RUNX1 Log2FC,[1],-0.08636
same,SOX4 Log2FC,[1],0.2683
same,SPI1 Log2FC,[1],0.1755
same,TESC Log2FC,[1],0.4308
same,TRIB1 Log2FC,[1],-0.2715
same,ZBTB46 Log2FC,[1],-0.2139
same,ZFP36L1 Log2FC,[1],2.504
same,deregulated genes (RNA-seq),[2],227
same,down-regulated genes (RNA-seq),[2],39
same,up-regulated genes (RNA-seq),[2],188
same,deregulated genes (RNA-seq),[2]; [4],136
same,down-regulated genes (RNA-seq),[2]; [4],3
same,up-regulated genes (RNA-seq),[2]; [4],133
same,ABI1 Log2FC,[2],-0.1754
same,CBFB Log2FC,[2],-0.0298
same,CCR2 Log2FC,[2],0.967
same,CD44 Log2FC,[2],-0.2341
same,CDK6 Log2FC,[2],0.2817
same,CEBPB Log2FC,[2],-0.1067
same,CSF3R Log2FC,[2],0.0126
same,CTNNBIP1 Log2FC,[2],0.7431
same,ELANE Log2FC,[2],-2.007
same,EP300 Log2FC,[2],-0.2558
same,FLI1 Log2FC,[2],-0.04836
same,FUT4 Log2FC,[2],-0.2495
same,GATA2 Log2FC,[2],-0.2076
same,HCLS1 Log2FC,[2],-0.2476
same,ITGA4 Log2FC,[2],-0.309
same,ITGAM Log2FC,[2],0.9545
same,ITGB1 Log2FC,[2],0.4474
same,ITGB2 Log2FC,[2],-0.1397
same,JUN Log2FC,[2],0.8212
same,MPO Log2FC,[2],-0.2249
same,MYC Log2FC,[2],-0.2011
same,NFE2 Log2FC,[2],-0.621
same,PIR Log2FC,[2],0.9082
same,RUNX1 Log2FC,[2],-0.1954
same,SOX4 Log2FC,[2],0.2596
same,SPI1 Log2FC,[2],-0.5566
same,TESC Log2FC,[2],0.05581
same,TRIB1 Log2FC,[2],0.02008
same,ZBTB46 Log2FC,[2],0.2361
same,ZFP36L1 Log2FC,[2],0.9631
"COc1cc2nc(-c3cc(C)oc3C)cc(NCC3CCN(c4ncc(C(=O)NO)cn4)CC3)c2cc1OC [CM-1758, 2-[4-[[[2-(2,5-dimethyl-3-furyl)-6,7-dimethoxy-4-quinolyl]amino]methyl] -1-piperidyl]pyrimidine-5-carbohydroxamic acid]",deregulated genes (RNA-seq),[1],3750
same,down-regulated genes (RNA-seq),[1],2024
same,up-regulated genes (RNA-seq),[1],1726
same,deregulated genes (RNA-seq),[1]; [3],2520
same,down-regulated genes (RNA-seq),[1]; [3],1183
same,up-regulated genes (RNA-seq),[1]; [3],1337
same,ABI1 Log2FC,[1],1.097
same,CBFB Log2FC,[1],0.03944
same,CCR2 Log2FC,[1],-0.7456
same,CD44 Log2FC,[1],0.03189
same,CDK6 Log2FC,[1],-1.439
same,CEBPB Log2FC,[1],0.5234
same,CSF3R Log2FC,[1],-1.197
same,CTNNBIP1 Log2FC,[1],0.1531
same,ELANE Log2FC,[1],-2.561
same,EP300 Log2FC,[1],0.4661
same,FLI1 Log2FC,[1],-0.175
same,FUT4 Log2FC,[1],-1.092
same,GATA2 Log2FC,[1],2.602
same,HCLS1 Log2FC,[1],-0.435
same,ITGA4 Log2FC,[1],-1.164
same,ITGAM Log2FC,[1],1.457
same,ITGB1 Log2FC,[1],0.9913
same,ITGB2 Log2FC,[1],-0.1511
same,JUN Log2FC,[1],1.4026
same,MPO Log2FC,[1],-2.925
same,MYC Log2FC,[1],-2.637
same,NFE2 Log2FC,[1],-0.1388
same,PIR Log2FC,[1],0.9099
same,RUNX1 Log2FC,[1],0.04441
same,SOX4 Log2FC,[1],0.5561
same,SPI1 Log2FC,[1],-1.467
same,TESC Log2FC,[1],-0.171
same,TRIB1 Log2FC,[1],-0.1972
same,ZBTB46 Log2FC,[1],-0.02647
same,ZFP36L1 Log2FC,[1],4.387
same,deregulated genes (RNA-seq),[2],3299
same,down-regulated genes (RNA-seq),[2],1610
same,up-regulated genes (RNA-seq),[2],1589
same,deregulated genes (RNA-seq),[2]; [4],1278
same,down-regulated genes (RNA-seq),[2]; [4],409
same,up-regulated genes (RNA-seq),[2]; [4],869
same,ABI1 Log2FC,[2],0.03309
same,CBFB Log2FC,[2],-0.1665
same,CCR2 Log2FC,[2],0.8564
same,CD44 Log2FC,[2],-0.4326
same,CDK6 Log2FC,[2],0.05972
same,CEBPB Log2FC,[2],0.4359
same,CSF3R Log2FC,[2],0.06074
same,CTNNBIP1 Log2FC,[2],1.186
same,ELANE Log2FC,[2],-1.7362
same,EP300 Log2FC,[2],-0.1778
same,FLI1 Log2FC,[2],-0.2831
same,FUT4 Log2FC,[2],-1.407
same,GATA2 Log2FC,[2],0.09944
same,HCLS1 Log2FC,[2],-0.1237
same,ITGA4 Log2FC,[2],-1.197
same,ITGAM Log2FC,[2],2.404
same,ITGB1 Log2FC,[2],0.9626
same,ITGB2 Log2FC,[2],0.07825
same,JUN Log2FC,[2],0.9774
same,MPO Log2FC,[2],-2.297
same,MYC Log2FC,[2],-2.139
same,NFE2 Log2FC,[2],-0.3801
same,PIR Log2FC,[2],1.629
same,RUNX1 Log2FC,[2],-0.01075
same,SOX4 Log2FC,[2],0.2112
same,SPI1 Log2FC,[2],-0.6241
same,TESC Log2FC,[2],-0.09114
same,TRIB1 Log2FC,[2],-0.4986
same,ZBTB46 Log2FC,[2],0.4368
same,ZFP36L1 Log2FC,[2],1.334
